Patent US6608082B1, “Treatment of erectile dysfunction using isoquinoline compound melanocortin receptor ligands” (Lion Bioscience AG, priority 1998, dated 2003)

Legend:
MCR-3 = target: T1, MCR-3 (Homo sapiens, UniProt P41968); assay: cAMP assay for melanocortin receptors, HEK 293 cells expressing MCR-3; type: cell-based; conditions: read-out: MC-3 EC50 (cAMP)
T1 construct: expressed in transfected cells; host or cells: HEK 293
Method: (§1) HEK 293 cells expressing MCR-1, MCR-3, MCR-4 and MCR-5 were used (see Example II). Cells were plated at 20,000 cells per well in a 96-well plate coated with collagen. The next day, cells were pretreated with 75 μl of 0.4 mM 3-isobutyl-1-methylxanthine (IBMX) in low serum medium containing DMEM, 25 mM HEPES, non-essential amino acids, vitamins, 100 units/ml penicillin, 100 μg/ml streptomycin and 0.1% COSMIC CALF SERUM. IBMX is an inhibitor of cAMP phosphodiesterase. The pretreatment was carried out for 10 min at 37° C.
(§2) Following pretreatment, 25 μl of diluted isoquinoline compound was added to the wells, and cells were incubated for 15 min at 37° C. Cells were lysed by adding 25 μl saponin lysis buffer and incubating 2 to 5 min. Plates were covered and stored at −20° C.
(§3) cAMP concentration was determined by ELISA. Briefly, 96 well ELISA plates were coated with goat anti-cAMP antibody in PBS for 12 to 72 hr at 4° C. 50 μl of sample was mixed with 50 μl of cAMP ELISA buffer containing 1% bovine serum albumin, 10% heat-inactivated donor horse serum, 1% normal mouse serum and 0.05% TWEEN-20 in PBS, and the diluted sample was added to the coated ELISA plate. Standards of known concentrations of cAMP were added to separate wells. 25 μl of 16 ng/ml cAMP-conjugated horse radish peroxidase (HRP) (cAMP-HRP) was added to each well, and the plates were […] at room temperature. Plates were washed and the binding of cAMP-HRP was detected with 3,3′,5,5′-tetramethylbenzidine (TMB) and hydrogen peroxide using standard immunoassay procedures.
(§4) Various isoquinoline compounds were tested for their ability to activate MC receptor by measuring cAMP as described in Example III.

MCR-4 = target: T2, MCR-4 (Homo sapiens, UniProt P32245); assay: cAMP assay for melanocortin receptors, HEK 293 cells expressing MCR-4; type: cell-based; conditions: for EC50: read-out: MC-4 EC50 (cAMP); for MC-4 Max (pmole) cAMP produced: maximum amount of cAMP
T2 construct: expressed in transfected cells; host or cells: HEK 293
T2 sequence (P32245 whole entry): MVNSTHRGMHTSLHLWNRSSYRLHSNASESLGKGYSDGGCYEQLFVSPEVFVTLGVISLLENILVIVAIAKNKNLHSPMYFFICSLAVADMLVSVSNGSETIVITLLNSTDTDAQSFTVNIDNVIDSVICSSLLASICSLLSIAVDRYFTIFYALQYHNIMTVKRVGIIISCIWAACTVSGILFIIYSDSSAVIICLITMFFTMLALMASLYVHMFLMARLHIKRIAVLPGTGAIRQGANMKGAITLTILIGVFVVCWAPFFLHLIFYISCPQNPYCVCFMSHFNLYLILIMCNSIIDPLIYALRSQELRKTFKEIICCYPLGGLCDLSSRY
Method: as §1, §2, §3, §4

MCR-5 = target: T3, MCR-5 (Homo sapiens, UniProt P33032); assay: cAMP assay for melanocortin receptors, HEK 293 cells expressing MCR-5; type: cell-based; conditions: read-out: MC-5 EC50 (cAMP)
T3 construct: expressed in transfected cells; host or cells: HEK 293
T3 sequence (P33032 whole entry): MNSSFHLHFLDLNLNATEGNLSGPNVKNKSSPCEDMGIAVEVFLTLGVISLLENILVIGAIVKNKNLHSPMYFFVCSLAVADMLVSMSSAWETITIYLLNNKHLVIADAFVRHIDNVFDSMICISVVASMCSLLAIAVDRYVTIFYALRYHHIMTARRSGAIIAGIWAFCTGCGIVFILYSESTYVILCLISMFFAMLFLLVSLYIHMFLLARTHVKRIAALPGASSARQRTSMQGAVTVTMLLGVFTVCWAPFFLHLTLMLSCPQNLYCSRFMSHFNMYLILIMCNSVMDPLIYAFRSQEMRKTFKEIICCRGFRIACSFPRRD
Method: as §1, §2, §3, §4

[1] = tested on: arachidonic acid induced dermal inflammation; assay: Arachidonic acid induced dermal inflammation (ear thickness); type: in vivo, Female BALB/c mice; conditions: for inflammation in response to arachadonic acid administration: mouse, in vivo; for reduction in the level of arachidonic acid-induced dermal inflammation: intraperitoneally, TRG 2409-2 or TRG 2409-14 100 or 300 μg/mouse, FIG. 5
Method: Female BALB/c mice (17-22 g) were used and administered the test isoquinoline compounds or positive control compounds 30 to 60 min prior to topical application of arachidonic acid. Indomethacin and HP 228 were used as positive controls. Compounds were administered orally (p.o.) or intraperitoneally (i.p.). Initial ear thickness (left and right) was measured using spring loaded micro-calipers. Arachidonic acid was applied to mice anesthetized with a cocktail of ketamine/xylazine (7.0 mg/ml and 0.6 mg/ml, respectively) administered i.p. (300 μl/mouse). Utilizing a micro-pipette, 20 μl of arachidonic acid solution (100 mg/ml ethanol or acetone) was applied to the right ear (10 μl to inner and 10 μl to outer surfaces of […] for a total of 2 mg arachidonic acid per right ear), and 20 μl of vehicle (ethanol or acetone) was applied to the left ear. Mice were returned to their cages to recover. Mice were again anesthetized 50 min after arachidonic acid application and their ears measured.
Dermal inflammation was determined by subtracting the difference of the vehicle treated left ear (L60−L0) from the difference of the arachidonic acid treated right ear (R60−R0). Ear thickness measurements were averaged for each group, and the responses in the vehicle treated control group (Cr; saline or PBS) were subtracted from the response noted in the isoquinoline compound treated group (Tr) to give the relative inflammatory response for each treatment group compared to the control group. The percent inhibition is defined by the equation: % inhibition=(Cr−Tr)/(Cr)×100.

[2] = Body weight and food consumption after i.p. administration; type: in vivo, Sprague-Dawley rats; conditions: for reducing body weight and food consumption: rat, in vivo; for food consumption / weight gain / body weight relative to control: rats, 5 mg/kg i.p.; for food consumption / weight gain: 18 hours after injection, FIG. 6; for body weight relative to control: at 9 hours as well as 18 hours, FIG. 7
Text: Adult male Sprague-Dawley rats (175-225 g) were used to assess the effect of isoquinoline compounds on food uptake and body weight. Baseline body weight and food consumption measurements were taken for 3 days prior to start of the study (Day 0). On Day −1, the food was taken away from the animals at 5:00 PM. The next morning (Day 0), body weight measurements were taken, and the animals were divided into treatment groups with 6 animals in each group. The treatment groups were saline control, HP 228 positive control and test isoquinoline compounds. Saline was administered i.p. at 1 ml/kg. HP 228 and test isoquinoline compounds were administered i.p. at 5 mg/kg. The injections were initiated at 2:00 PM on Day 0.
Body weight and food consumption measurements were taken at 9 hr (Day 0; 11:00 PM) and at 18 hr (Day 1, 8:00 AM) after injection. At the end of the study, all evaluated parameters (9 and 18 hour body weight and food consumption) were analyzed by standard statistical methods. Significance (P<0.05) was determined by one-way ANOVA, ANOVA for repeated measures, or Student's t-test.
The level of reduction was similar to that seen with HP 228.

[3] = 100 μg/mouse administered intraperitoneally, FIG. 4

T1 sequence (P41968 whole entry): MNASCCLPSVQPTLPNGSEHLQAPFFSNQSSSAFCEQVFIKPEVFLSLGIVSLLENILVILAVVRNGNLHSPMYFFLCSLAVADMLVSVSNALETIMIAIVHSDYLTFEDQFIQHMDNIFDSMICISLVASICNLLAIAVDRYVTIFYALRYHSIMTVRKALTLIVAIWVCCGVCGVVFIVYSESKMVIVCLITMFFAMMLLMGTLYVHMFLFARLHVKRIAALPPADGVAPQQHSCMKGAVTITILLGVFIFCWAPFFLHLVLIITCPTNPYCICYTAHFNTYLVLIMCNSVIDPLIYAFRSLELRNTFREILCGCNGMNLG

SMILES | EC50 (MCR-3) [µM] | EC50 (MCR-4) [µM] | EC50 (MCR-5) [µM] | MC-4 Max (pmole) cAMP produced (MCR-4) [pmol] | inhibition of arachidonic acid induced dermal inflammation [1, 3] | inflammation in response to arachadonic acid administration [1] | reducing body weight and food consumption [2] | further results
CNC(CN)CN1Cc2ccccc2C(CNC2CCCCC2)C1c1ccc(O)cc1 (stereo not drawn) [TRG 2405-156] | > 50 | > 50 | > 50 | – | – | – | – | –
CNC(CN)CCCCN1Cc2ccccc2C(CNC2CCCCC2)C1c1ccc(Cl)cc1Cl (stereo not drawn) [TRG 2405-190] | – | 46.3 | – | 100.48 | inhibition of arachidonic acid induced dermal inflammation | reduced inflammation | particularly effective at reducing body weight and food consumption | food consumption [2]: significant decrease; weight gain [2]: significant decrease
CNC(CN)CCCCN1Cc2ccccc2C(CNC2CCCCC2)C1c1ccc(N(C)C)cc1 (stereo not drawn) [TRG 2405-235] | – | > 50 | – | – | – | – | – | –
CNC(CN)CCCCN1Cc2ccccc2C(CNC2CCCCC2)C1c1ccc(C(F)(F)F)cc1 (stereo not drawn) [TRG 2405-238] | > 50 | > 50 | > 50 | – | – | – | – | –
CCNc1ccc(C2C(CNC3CCCCC3)c3ccccc3CN2CCCCC(CN)NC)cc1 (stereo not drawn) [TRG 2405-239] | > 50 | > 50 | > 50 | – | – | – | – | –
CNC(CN)CCCCN1Cc2ccccc2C(CNC2CCCCC2)C1c1ccc(-c2ccccc2)cc1 (stereo not drawn) [TRG 2405-241] | > 50 | 28.5 | > 50 | 32.32 | inhibition of arachidonic acid induced dermal inflammation | reduced inflammation | particularly effective at reducing body weight and food consumption | inhibition of arachidonic acid induced dermal inflammation ([1]; administered intraperitoneally, TRG 2405-241 300 μg/mouse, HP 228 100 μg/mouse, FIG. 3): comparable to that seen with HP 228; inhibition of arachidonic acid induced dermal inflammation ([1]; administered orally, TRG 2405-241 600 μg/mouse, indomethacin 1 mg/mouse, FIG. 2): comparable to that seen with indomethacin; food consumption [2]: significant decrease; weight gain [2]: significant decrease
CNC(CN)CCCCN1Cc2ccccc2C(CNC2CCCCC2)C1c1ccc(Br)cc1 (stereo not drawn) [TRG 2405-242] | > 50 | > 50 | > 50 | – | – | – | – | –
CNC(CN)CCCCN1Cc2ccccc2C(CNC2CCCCC2)C1c1ccc(O)cc1 (stereo not drawn) [TRG 2405-246] | > 50 | > 50 | > 50 | – | – | – | – | –
CNC(CN)CCCCN1Cc2ccccc2C(CNC2CCCCC2)C1c1ccc(Oc2ccccc2)cc1 (stereo not drawn) [TRG 2405-252] | > 50 | 18.5 | > 50 | 39.24 | inhibition of arachidonic acid induced dermal inflammation | reduced inflammation | particularly effective at reducing body weight and food consumption | body weight relative to control [2]: significant differences
CCCOc1ccc(C2C(CNC3CCCCC3)c3ccccc3CN2CCCCC(CN)NC)cc1 (stereo not drawn) [TRG 2405-253] | > 50 | 16.6 | > 50 | 69.11 | inhibition of arachidonic acid induced dermal inflammation | reduced inflammation | particularly effective at reducing body weight and food consumption | body weight relative to control [2]: significant differences
CNC(CN)CCCCN1Cc2ccccc2C(CNC2CCCCC2)C1c1ccc2cccc(O)c2n1 (stereo not drawn) [TRG 2405-262] | > 50 | > 50 | > 50 | – | – | – | – | –
CCCCNc1ccc(C2C(CNCc3ccccc3O)c3ccccc3CN2CCCCC(CN)NC)cc1 (stereo not drawn) [TRG 2409-2] | – | – | – | – | – | reduced inflammation | – | reduction in the level of arachidonic acid-induced dermal inflammation ([1]; HP 228 100 μg/mouse): dose dependent reduction in the level of arachidonic acid-induced dermal inflammation
CCCCNc1ccc(C2C(CNC3CCCCC3)c3ccccc3CN2CCCCC(CN)NC)cc1 (stereo not drawn) [TRG 2409-14] | – | – | – | – | – | reduced inflammation | – | reduction in the level of arachidonic acid-induced dermal inflammation ([1]; HP 228 100 μg/mouse): decreased dermal inflammation to a lesser extent than TRG 2409-2
